{"source": "paper PMC3767973", "about": "(Chembiochem : a European journal of chemical biology, 2013)", "key": {"DXP synthase [1]": {"molecular_target": "T1, DXP synthase (Escherichia coli, UniProt P77488)", "T1 sequence (P77488 1-620)": "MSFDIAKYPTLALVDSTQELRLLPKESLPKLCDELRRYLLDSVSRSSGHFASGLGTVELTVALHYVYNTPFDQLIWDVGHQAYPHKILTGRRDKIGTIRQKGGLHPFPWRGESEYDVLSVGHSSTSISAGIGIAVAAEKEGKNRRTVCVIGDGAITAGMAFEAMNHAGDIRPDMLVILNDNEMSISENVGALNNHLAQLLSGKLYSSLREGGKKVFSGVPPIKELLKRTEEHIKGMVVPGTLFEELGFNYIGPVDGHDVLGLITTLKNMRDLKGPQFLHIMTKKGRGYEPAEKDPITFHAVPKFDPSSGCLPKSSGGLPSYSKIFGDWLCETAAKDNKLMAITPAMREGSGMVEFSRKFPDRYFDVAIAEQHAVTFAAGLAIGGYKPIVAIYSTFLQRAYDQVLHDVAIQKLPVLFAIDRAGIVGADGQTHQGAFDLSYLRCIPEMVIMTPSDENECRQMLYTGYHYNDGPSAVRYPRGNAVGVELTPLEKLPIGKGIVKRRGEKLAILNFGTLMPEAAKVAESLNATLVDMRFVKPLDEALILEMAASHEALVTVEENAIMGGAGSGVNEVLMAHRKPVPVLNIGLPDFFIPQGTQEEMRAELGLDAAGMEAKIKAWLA", "test": "Aromatic aldehydes as DXP synthase acceptor substrates", "type": "biochemical"}, "IspC": {"molecular_target": "T2, IspC (Escherichia coli, UniProt P45568)", "T2 sequence (P45568 1-398)": "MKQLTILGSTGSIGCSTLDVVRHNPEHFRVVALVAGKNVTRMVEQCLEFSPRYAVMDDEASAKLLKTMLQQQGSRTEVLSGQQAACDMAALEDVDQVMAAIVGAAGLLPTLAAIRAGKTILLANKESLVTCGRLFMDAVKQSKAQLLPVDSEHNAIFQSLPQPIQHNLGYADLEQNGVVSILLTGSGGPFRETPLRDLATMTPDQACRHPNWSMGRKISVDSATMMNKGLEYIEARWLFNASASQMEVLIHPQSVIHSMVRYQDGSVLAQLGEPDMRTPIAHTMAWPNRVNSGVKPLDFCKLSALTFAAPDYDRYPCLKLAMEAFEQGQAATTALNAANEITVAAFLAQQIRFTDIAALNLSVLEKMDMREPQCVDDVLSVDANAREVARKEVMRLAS", "test": "Inhibition of the coupling enzyme IspC by BnAP", "type": "biochemical", "conditions": "up to 1.5 mM"}, "E. coli DXP synthase": {"molecular_target": "T3, E. coli DXP synthase (Escherichia coli, UniProt P77488)", "T3 sequence (P77488 1-620)": "T1 sequence (P77488 1-620)", "type": "biochemical", "conditions": "100 mM HEPES pH 8.0, 10-20 mM pyruvate, 10% DMSO, 37 °C; average ± SEM, triplicate"}, "Porcine PDH E1 subunit": {"system": "Porcine PDH E1 subunit", "test": "Kinetic parameters of nitroso substrates with PDH", "type": "biochemical", "conditions": "read-out: PDH Km; 100 mM HEPES pH 8.0, 10-20 mM pyruvate, 10% DMSO, 37 °C; average ± SEM, triplicate"}, "yeast TK": {"system": "yeast TK", "conditions": "cited from earlier work"}, "DXP synthase [2]": {"molecular_target": "DXP synthase (Escherichia coli, UniProt P77488)", "conditions": "0.5-5 mM nitroso substrate, 10-20 mM pyruvate, 37 °C, HPLC"}}}
{"smiles": "O=Cc1c(O)cc([N+](=O)[O-])cc1[N+](=O)[O-]", "note": "[2-Hydroxy-4,6-dinitrobenzaldehyde]", "values": [{"measurement": "kcat", "setting": "DXP synthase [1]; aromatic aldehyde as acceptor substrate", "value": "0.00583 ± 0.00083", "unit": "s⁻¹"}, {"measurement": "Km relative to the natural substrate D-GAP", "setting": "DXP synthase [1]; fold higher than D-GAP", "value": "~ 18 fold"}]}
{"smiles": "CC(=O)P(=O)(O)OCc1ccccc1", "note": "[BnAP, benzylacetylphosphonate]", "values": [{"measurement": "Inhibition of the coupling enzyme (IspC)", "setting": "IspC", "value": "not observed"}]}
{"smiles": "O=Nc1ccccc1", "note": "[Compound 1, nitrosobenzene]", "values": [{"measurement": "kcat", "setting": "E. coli DXP synthase", "value": "2.92 ± 0.317", "unit": "s⁻¹"}, {"measurement": "Km", "setting": "Porcine PDH E1 subunit", "value": "350 ± 30", "unit": "µM"}]}
{"smiles": "CN(C)c1ccc(N=O)cc1", "note": "[Compound 4]", "values": [{"measurement": "Km", "setting": "E. coli DXP synthase", "value": "54 ± 13", "unit": "µM"}, {"measurement": "kcat", "setting": "E. coli DXP synthase", "value": "0.015 ± 0.0017", "unit": "s⁻¹"}, {"measurement": "Substrate for yeast TK", "setting": "yeast TK", "value": "not a substrate"}, {"measurement": "Km", "setting": "Porcine PDH E1 subunit", "value": "408 ± 60", "unit": "µM"}, {"measurement": "Substrate for DXP synthase (turnover)", "setting": "DXP synthase [2]", "value": "is a substrate"}]}
{"smiles": "O=C[C@H](O)COP(=O)(O)O", "note": "[D-GAP, D-glyceraldehyde 3-phosphate, reference compound]", "values": [{"measurement": "kcat", "setting": "E. coli DXP synthase", "value": "1.7 ± 0.12", "unit": "s⁻¹"}]}
